# Data reported in PMC3350394, “Kinetic analysis and test-retest variability of the radioligand [^11C](R)-PK11195 binding to TSPO in the human brain - a PET study in control subjects” (EJNMMI Research, 2012).
# Values joined by “and” are separate entries in the source; they are usually repeats but may differ in a detail not shown here. Equal entries are not always repeated.
# Target: TSPO (Homo sapiens, UniProt P30536)
# Assay: PET, kinetic compartment analysis (1TCM, 2TCM) with metabolite-corrected arterial input function
# Conditions: for BPND (k3/k4) Mean: mean of test and retest; for BPND (k3/k4) Retest / BPND (k3/k4) Test / VT (2TCM): mean(SD); for BPND (k3/k4) Retest / BPND (k3/k4) Test: 6 subjects; for ICC: BPND test-retest
# Method: Each subject was placed recumbent with the head in the PET system. A head fixation system with an individual plaster helmet was used. A cannula was inserted into the left radial artery and another into the right antecubital vein. A sterile phosphate buffer (pH = 7.4) containing radioligand was injected as a bolus over 2 s into the cubital vein. The cannula was then immediately flushed with a 10-mL saline solution. In each individual, the measurement was repeated after approximately 6 weeks.
# The PET system used was ECAT Exact HR 47 (Siemens/CTI, Knoxville, TN, USA), with an in-plane and an axial resolution of 3.6 and 4.0 mm, respectively, full width at half maximum (FWHM). The radioactivity in the brain was measured continuously for 60 min using a pre-programmed sequence of […] (20 s × 9, 30 s × 6, 180 s × 5, 300 s × 5). […] The images were reconstructed with a Hanning filter (FWHM = 2 mm) in a matrix of 128 × 128 × 47 voxels, yielding a voxel size of 2.03 × 2.03 × 3.125 mm. Attenuation correction was done using transmission scan data obtained for each subject.
# [^11C](R)-PK11195 binding to TSPO was quantified using kinetic compartment analyses with the metabolite-corrected arterial plasma curve as input function. Two compartment models (one- and two-tissue) were used to fit the model to the TACs. The fractional volume of blood present in the tissue volume and bolus time were estimated for each individual, each occasion, by fitting the whole brain TAC with a two-tissue compartment model.
# The one-tissue compartment model (1TCM) describes one compartment which is a composite of free, non-specifically and specifically bound radioligands. The two rate constants, K1 and k2, describe the influx and efflux rates across the blood-brain barrier, respectively.
# The two-tissue compartment model (2TCM) has been described in detail in the literature. The two-tissue compartments are defined as the radioactivity concentration of a nondisplaceable radioligand in the brain (CND) and the radioactivity concentration of a radioligand specifically bound to receptors (CB). In this model, four rate constants (K1, k2, k3 and k4) explain the time curves for radioligand in the brain. In short, the four rate constants were determined by curve fitting with a weighted non-linear least squares fitting technique with constraint-restricting parameters between 0 and 0.9. Each initial value for K1, k2, k3 and k4 was 0.5, 0.1, 0.5 and 0.5, respectively. The local minimum of the sum of the squared residuals was determined by iteration.
# Regional [^11C](R)-PK11195 binding was expressed using the concept of the total distribution volume (VT), which is defined by the following equation, using kinetic constants obtained from 2TCM [16, 20, 21].
# Specific [^11C](R)-PK11195 binding was expressed as binding potential relative to nondisplaceable binding (BPND) as follows:
# The fractional volume of blood present in the tissue volume was determined for each individual, each occasion. It was obtained by fitting whole brain TAC with a 2TCM with six parameters (K1, k2, k3, k4, fractional blood volume (VB) and time shift between plasma input function and PET TAC (tbolus)) and parameters VB and tbolus subsequently applied for each brain region.
# The reproducibility of two successive PET measurements was analysed by means of descriptive statistics (mean, range, SD, coefficient of variance (CV), difference in measurement (error in percent) and intra-class correlation coefficient (ICC)). The ICC was calculated from the between-subject and within-subject variations, using the expression: […]
# [1] = brainstem, BPND test-retest difference in measurements
# [2] = brainstem, VT (2TCM) test-retest
# [3] = caudate (L), BPND test-retest difference in measurements
# [4] = caudate (R), BPND test-retest difference in measurements
# [5] = cerebellum, BPND test-retest difference in measurements
# [6] = cerebellum, VT (2TCM) test-retest
# [7] = grey matter, cortex, BPND test-retest difference in measurements
# [8] = grey matter, 1TCM, retest (2), individual subjects 1-6
# [9] = grey matter, 1TCM, test (1), individual subjects 1-6
# [10] = grey matter, 1TCM, test (1), mean(SD/CV) of 6 subjects
# [11] = grey matter, 2TCM, retest (2), individual subjects 1-6
# [12] = grey matter, 2TCM, retest (2), mean(SD/CV) of 6 subjects
# [13] = grey matter, 2TCM, test (1), individual subjects 1-6
# [14] = grey matter, 2TCM, test (1), mean(SD/CV) of 6 subjects
# [15] = grey matter, VT (2TCM) test-retest
# [16] = putamen (L), BPND test-retest difference in measurements
# Sequence of TSPO (P30536 whole entry): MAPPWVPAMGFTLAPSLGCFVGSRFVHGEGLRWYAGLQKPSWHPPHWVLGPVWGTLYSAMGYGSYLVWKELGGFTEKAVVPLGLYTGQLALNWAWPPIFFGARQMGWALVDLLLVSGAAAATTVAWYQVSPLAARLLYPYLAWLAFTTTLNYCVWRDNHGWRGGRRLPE
structure (smiles),measurement,setting,value
CC[C@@H](C)N([11CH3])C(=O)c1cc2ccccc2c(-c2ccccc2Cl)n1 [[^11C](R)-PK11195],influx rate constant K1,"2TCM, range",0.05 to 0.09
same,"BPND throughout the human brain, range","2TCM, regional means",1.11 to 2.21
same,BPND (k3/k4) Mean,"brainstem, 2TCM",2.09
same,BPND (k3/k4) Retest,"brainstem, 2TCM",2.18(0.33)
same,BPND (k3/k4) Test,"brainstem, 2TCM",2.00(0.35)
same,ICC,brainstem,-0.6
same,Error % mean(SD),[1],-13(31) %
same,Error range (%),[1],-45 to 26%
same,Error % mean(SD),[2],-13(10) %
same,Error range (%),[2],-29 to -1%
same,VT (2TCM),"brainstem, retest",0.74 (0.16)
same,VT (2TCM),"brainstem, test",0.86(0.18)
same,BPND (k3/k4) Mean,"caudate (L), 2TCM",1.68
same,BPND (k3/k4) Retest,"caudate (L), 2TCM",1.84(0.93)
same,BPND (k3/k4) Test,"caudate (L), 2TCM",1.52(0.43)
same,ICC,caudate (L),-0.05
same,Error % mean(SD),[3],-27(66) %
same,Error range (%),[3],-133 to 42%
same,BPND (k3/k4) Mean,"caudate (R), 2TCM",1.77
same,BPND (k3/k4) Retest,"caudate (R), 2TCM",2.21(1.19)
same,BPND (k3/k4) Test,"caudate (R), 2TCM",1.33(0.68)
same,ICC,caudate (R),0.01
same,Error % mean(SD),[4],-96(126) %
same,Error range (%),[4],-288 to12%
same,BPND (k3/k4) Mean,"caudate, 2TCM",1.65
same,BPND (k3/k4) Retest,"caudate, 2TCM",1.92(0.87)
same,BPND (k3/k4) Test,"caudate, 2TCM",1.37(0.55)
same,ICC,caudate,0.01
same,Error range (%),"caudate, BPND test-retest difference in measurements",-155 to 30%
same,Error % mean(SD),"caudate, VT (2TCM) test-retest",25(36) %
same,Error range (%),"caudate, VT (2TCM) test-retest",-35 to 62%
same,VT (2TCM),"caudate, retest",1.06 (0.24)
same,VT (2TCM),"caudate, test",0.88(0.13)
same,BPND (k3/k4) Mean,"cerebellum, 2TCM",1.33
same,BPND (k3/k4) Retest,"cerebellum, 2TCM",1.37(0.24)
same,BPND (k3/k4) Test,"cerebellum, 2TCM",1.29(0.19)
same,ICC,cerebellum,0.07
same,Error % mean(SD),[5],-8% and -8(20) %
same,Error range (%),[5],-21 to 32%
same,Error % mean(SD),[6],-1(18) %
same,Error range (%),[6],-32 to 24%
same,VT (2TCM),"cerebellum, retest",0.72 (0.16)
same,VT (2TCM),"cerebellum, test",0.74(0.18)
same,BPND (k3/k4) Mean,"grey matter, cortex, 2TCM",1.55
same,BPND (k3/k4) Retest,"grey matter, cortex, 2TCM",1.59(0.29)
same,BPND (k3/k4) Test,"grey matter, cortex, 2TCM",1.50(0.27)
same,ICC,"grey matter, cortex",0.47
same,Error % mean(SD),[7],5% and 5(18) %
same,Error range (%),[7],-24 to 25%
same,K1,[8],0.094 mL/cc/min and 0.035 mL/cc/min and 0.044 mL/cc/min and 0.045 mL/cc/min and 0.056 mL/cc/min and 0.057 mL/cc/min
same,k2,[8],0.111 min⁻¹ and 0.086 min⁻¹ and 0.108 min⁻¹ and 0.091 min⁻¹ and 0.099 min⁻¹ and 0.118 min⁻¹
same,k2,"grey matter, 1TCM, retest (2), mean(SD/CV) of 6 subjects",0.102(0.012/12) min^-1
same,K1,[9],0.062 mL/cc/min and 0.037 mL/cc/min and 0.042 mL/cc/min and 0.074 mL/cc/min and 0.054 mL/cc/min
same,k2,[9],0.086 min⁻¹ and 0.087 min⁻¹ and 0.111 min⁻¹ and 0.106 min⁻¹ and 0.116 min⁻¹ and 0.096 min⁻¹
same,K1,[10],0.055(0.014/25) mL/cc/min
same,k2,[10],0.100(0.012/12) min^-1
same,K1,[11],0.077 mL/cc/min and 0.129 mL/cc/min and 0.049 mL/cc/min and 0.067 mL/cc/min and 0.060 mL/cc/min and 0.073 mL/cc/min
same,k2,[11],0.287 min⁻¹ and 0.318 min⁻¹ and 0.246 min⁻¹ and 0.340 min⁻¹ and 0.239 min⁻¹ and 0.234 min⁻¹
same,k3,[11],0.059 min⁻¹ and 0.111 min⁻¹ and 0.062 min⁻¹ and 0.068 min⁻¹ and 0.065 min⁻¹
same,k4,[11],0.041 min⁻¹ and 0.076 min⁻¹ and 0.035 min⁻¹ and 0.032 min⁻¹ and 0.045 min⁻¹ and 0.044 min⁻¹
same,K1,[12],0.076 (0.028/37) mL/cc/min
same,k2,[12],0.277(0.045/16) min^-1
same,k3,[12],0.071(0.02/28) min^-1
same,k4,[12],0.046(0.016/34) min^-1
same,K1,[13],0.082 mL/cc/min and 0.048 mL/cc/min and 0.054 mL/cc/min and 0.094 mL/cc/min and 0.072 mL/cc/min
same,k2,[13],0.220 min⁻¹ and 0.245 min⁻¹ and 0.221 min⁻¹ and 0.264 min⁻¹ and 0.252 min⁻¹
same,k3,[13],0.061 min⁻¹ and 0.055 min⁻¹ and 0.040 min⁻¹ and 0.038 min⁻¹ and 0.076 min⁻¹ and 0.058 min⁻¹
same,k4,[13],0.033 min⁻¹ and 0.038 min⁻¹ and 0.023 min⁻¹ and 0.029 min⁻¹ and 0.067 min⁻¹ and 0.026 min⁻¹
same,K1,[14],0.072(0.018/25) mL/cc/min
same,k2,[14],0.237(0.019/8) min^-1
same,k3,[14],0.055(0.014/25) min^-1
same,Error % mean(SD),[15],-6(17) %
same,Error range (%),[15],-36 to 15%
same,VT (2TCM),"grey matter, retest",0.70 (0.17)
same,VT (2TCM),"grey matter, test",0.76(0.18)
same,BPND (k3/k4) Mean,"putamen (L), 2TCM",1.44
same,BPND (k3/k4) Retest,"putamen (L), 2TCM",1.60(0.67)
same,BPND (k3/k4) Test,"putamen (L), 2TCM",1.28(0.31)
same,ICC,putamen (L),0.02
same,Error % mean(SD),[16],-30(59) %
same,Error range (%),[16],-145 to 23%
